Reference: paper PMC10344656, “Plasma pharmacokinetics of tigolaner, emodepside, and praziquantel following topical administration of a combination product (Felpreva®) and of intravenous administration of the individual active ingredients in cats” (Current Research in Parasitology & Vector-borne Diseases, 2023)
Where two headings read alike, the source gives them in different places.

Legend:
[1] = Plasma pharmacokinetics after intravenous administration of the single active ingredients (Study 1); conditions: for T1/2 (plasma half-life): Study 1, single i.v. bolus in tetraglycol, 0.2 mg/kg praziquantel (actual 1.62, 0.21, 0.21 mg/kg), n = 6 per group, HPLC-MS/MS, geometric mean (geometric CV%)
Protocol: (§1) Altogether three studies were conducted.
(§2) Each AI and treatment were evaluated separately.
(§3) All parameters were derived from individual animal data sets.
(§4) Relative data set weight was always set to 1.
The basic plasma PK characteristics of the active AIs tigolaner, emodepside and praziquantel were profiled after i.v. dosing based on at least the following parameters: Clearance (Cl), V, extrapolated concentration at time of dosing (C0), area under the curve until the last concentration above LoQ (AUClast), AUCinf, dose normalized AUClast and AUCinf (AUClast/D, AUCinf/D), mean residence time (MRT), and half-life. The statistical group mean estimates and suitable statistical parameters describing the distribution (scattering) were provided.

[2] = Plasma pharmacokinetics after single topical Felpreva at 2.5x and 5x dose multiples (Study 2); conditions: for Cmax: n = 8, plasma, geometric mean; for AUCinf / T1/2 / Tmax / AUC(0-inf) / half-life: n = 8, geometric mean; for AUClast/D (Geo CV%) / Cmax/D (Geo CV%): dose-normalised, geometric mean (geometric CV%); for AUC(0-inf): AUCinf; for half-life: T1/2, cats
Protocol: as §1, §2, §3, §4

[3] = Excretion in urine and faeces after topical Felpreva (Study 3); conditions: for route of clearance: in vivo
Protocol: Urine and faeces were collected from cats in Study 3 for analysis of excretion of the AIs. Sampling days per cat were study days 1, 2, 7, 14, 21 and 28. Cats were kept in stainless steel cages with a litter box for the collection of total urine and faeces. The total volume of urine was determined, thereafter 2 aliquots (A + B) of ∼5 ml urine were taken, collected in clear tubes and stored in a freezer set to maintain −18 °C. Faecal samples were weighed and stored in a freezer set to maintain −18 °C.
Urine samples were prepared for analysis by mixing 100 μl urine with 900 μl solvent mixture (as described above), containing labelled tigolaner and praziquantel as internal standards, and then centrifuged. […] The lower limit of quantitation was 1 μg/l.
Faecal samples were extracted by mixing 1 or 5 g faeces with 15 or 40 ml acetonitrile containing the internal standards. The mixture was ultrasonicated and shaken by means of an overhead shaker and then centrifuged. The supernatant was transferred into a flask and the residue extracted again with 5 or 30 ml extraction solvent, shaken, and centrifuged. The extracts were combined and filled up to 20 or 100 ml with extraction solvent containing the internal standards, then filtered. […] The limit of quantitation was 10 μg/kg for each analyte.

[4] = for AUClast/D (Geo CV%) / Cmax/D (Geo CV%): single topical Felpreva 1x, dose-normalised, geometric mean (geometric CV%)
Protocol: (§7) Altogether three studies were conducted. Cats were treated with Felpreva® (containing emodepside praziquantel and tigolaner) at the recommended dose (14.5 ​mg/kg tigolaner, 3 ​mg/kg emodepside and 12 ​mg/kg praziquantel) or at 2.5× and 5× the recommended dose. For intravenous (i.v.) injection (Study 1) tigolaner, emodepside and praziquantel were formulated in tetraglycol as 8.9%, 1.85% and 7.4% solutions, respectively.
(§8) All cats were healthy and acclimatized for a minimum of 7 days. In studies 1 and 2, cats were individually housed for 8 ​h or 10–12 days following i.v. or topical administration, respectively, to avoid potential cross-contamination between animals. After this period, cats were group-housed by treatment group and sex. In Study 3, cats were socially housed in groups of 3 (same sex/same dose group) in one or more connected similar cages. The exception was when cats were separated for designated study procedures/activities associated with dosing or urine and faeces collection.
(§9) In Study 1 where i.v. administration was performed, 6 animals per treatment group were treated with a slow manual i.v. bolus using a catheter placed in the Vv. saphena medialis or Vv. saphena lateralis, and suitable 1-ml single-use syringes. Catheters were placed immediately prior to administration and removed immediately afterwards. Tigolaner (in tetraglycol, C5H9O(OC2H4)nOH, CAS no. 31692-85-0) was administered at 1.5 ​mg/kg (volume: 70–80 ​μl), emodepside (in tetraglycol) was administered at 0.3 ​mg/kg (volume 40–70 ​μl) and praziquantel (in tetraglycol) was administered at 0.2 ​mg/kg (volume: 40–60 ​μl). Low dose rates were administered intravenously to ensure tolerance of an i.v. bolus. Where treatment was administered topically, a spot-on application was manually applied at the base of the head while the hair was divided with 2 fingers. In all studies, topical doses were calculated using individual BWs and the nominal content of the three AIs. The AIs were administered based on the licensed therapeutic dose of 14.5, 3 and 12 ​mg/kg BW for tigolaner, emodepside and praziquantel, respectively. Cats were restrained for approximately a minute following administration to aid spread of the applied formulation and to prevent any possible run-off. […] Cats were closely observed for 1 ​h after dosing and at least once daily thereafter.
(§10) Blood samples of ∼0.5 ​ml (Studies 1 and 2) and 1.0 ​ml (Study 3) were collected into EDTA K2E tubes from the Vv. cephalica antebrachii or another suitable vein. Plasma was harvested following centrifugation (10 ​°C, 3220× g for 10 ​min) and subsequently stored frozen at −18 ​°C.
(§11) Analysis of all samples was performed after finalisation of the biological part of the study. The plasma samples were deproteinised by mixing 100 ​μl of plasma with 900 ​μl of a precipitation mixture of 0.040 ​g ammonium acetate in 100 ​ml water plus 0.1 ​ml formic acid and 600 ​ml acetonitrile containing the internal standards praziquantel-cyclohexyl-d11and [^13C2H6] tigolaner and subsequent centrifugation. Analysis of the AIs tigolaner, emodepside, and praziquantel was conducted by using High Performance Liquid Chromatography with an Agilent Zorbax Eclipse Plus C18 Rapid Resolution, 2.1 ​× ​50 ​mm, 1.8 ​μm column, water/formic acid (1000/0.120, v/v) ​+ ​10 ​mMol/l ammonium formate and methanol/formic acid (1000/0.120, v/v) ​+ ​10 ​mMol/l ammonium formate as mobile phase (0–0.5 ​min at 90/10 v/v, gradient to 0/100 v/v at 3–3.5 ​min and gradient to 90/10 v/v at 4–5 ​min) at 60 ​°C with a flow of 0.6 ​ml/min. Detection was performed by Tandem Mass Spectrometry (HPLC-MS/MS) using a Sciex API 5500 mass spectrometer in the positive ionisation mode.

fleas and ticks = conditions: cats, single topical dose, minimum recommended dose 14.5 mg/kg body weight, ref Cvejić et al., 2022a, b; Mencke et al., 2023; cited from earlier work
From the text: (§5) Tigolaner, from the bis-pyrazole class of compounds has potent antiparasitic properties acting against γ-aminobutyric acid- (GABA-) and glutamate-gated chloride channels with significant selectivity for insect neurons over mammalian neurons ([EMA, 2022]). Tigolaner has a high potency against insects and acarids by exposure via their feeding, i.e. fleas and ticks that initiate feeding will be exposed to the AI ([Cvejić et al., 2022a], [b]; [Mencke et al., 2023]). A single tigolaner dose administered topically at the minimum recommended dose of 14.5 mg/kg body weight (BW) on cats provides 13 we ...

fleas = conditions: cats, topical, ref EMA, 2022; Mencke et al., 2023; cited from earlier work
From the text: as §5

[5] = in vivo; cited from earlier work
From the text: (§6) Felpreva® combines the established Profender® AIs, emodepside and praziquantel with tigolaner.

[6] = set-up: method as in Jacquot et al., 2021; conditions: cats, Nexgard Combo spot-on, ref Jacquot et al., 2021; cited from earlier work
From the text: as §6

in vivo = conditions: topical or ocular
Protocol: as §7, §8, §9, §10, §11

[7] = cats, 1.5 mg/kg tigolaner, 0.2 mg/kg emodepside
[8] = cats, single i.v. bolus, 1.5 mg/kg tigolaner, 0.2 mg/kg emodepside, 0.2 mg/kg praziquantel, n = 6, geometric mean (geometric CV%)
[9] = 2.5x dose relative to 1x dose, topical Felpreva, cats
[10] = 5x dose relative to 1x dose, topical Felpreva, cats
[11] = cats, Study 2, single topical Felpreva 2.5x, 0.37 ml/kg
[12] = cats, Study 2, single topical Felpreva 5x, 0.74 ml/kg
[13] = cats, single topical Felpreva 2.5x
[14] = cats, single topical Felpreva 5x
[15] = topical Felpreva, dose rates from 1x to 2.5x and 5x, cats, Cmax/D and AUClast/D
[16] = Domestic Shorthair, in vivo, iv, 0.2 mg/kg

Cn1nc(C(F)(F)C(F)(F)F)c(C(F)(F)F)c1-n1cc(-c2ccc(Cl)c(C(=O)NC3(C#N)CC3)c2)cn1 [Tigolaner, tigolaner]
T1/2 (plasma half-life) [1, 7]: 515.4 (54.2) h
AUCinf [1, 8]: 300.1 (29.1) mg∗h/l
AUClast [1, 8]: 298 (29.5) mg∗h/l
Cl_pred (systemic clearance) [1, 8]: 0.005 (31.7) l/h/kg
Vz_pred (volume of distribution) [1, 8]: 4.00 (56.5) l/kg
Ratio AUClast/D [2, 9]: 1.05
Ratio Cmax/D [2, 9]: 0.91
Ratio AUClast/D [2, 10]: 0.76
Ratio Cmax/D [2, 10]: 0.58
Cmax ([2]; cats, Study 2, single topical Felpreva 2.5x, 0.37 ml/kg (36.25 mg/kg tigolaner, 7.5 mg/kg emodepside, 30 mg/kg praziquantel)): 2496.9 ng/mL
AUCinf [2, 11]: 3308 mg∗h/l
T1/2 [2, 11]: 569.9 h
Tmax [2, 11]: 440.4 h
Cmax ([2]; cats, Study 2, single topical Felpreva 5x, 0.74 ml/kg (72.5 mg/kg tigolaner, 15 mg/kg emodepside, 60 mg/kg praziquantel)): 3574.2 ng/mL
AUCinf [2, 12]: 5393 mg∗h/l
T1/2 [2, 12]: 563.2 h
AUClast/D (Geo CV%) [2, 13]: 108.66 (142.5) h∗kg∗μg/l/μg
Cmax/D (Geo CV%) [2, 13]: 0.084 (137.8) kg∗μg/l/μg
AUClast/D (Geo CV%) [2, 14]: 78.5 (30.7) h∗kg∗μg/l/μg
Cmax/D (Geo CV%) [2, 14]: 0.053 (34.0) kg∗μg/l/μg
dose proportionality of plasma PK (rate and extent) [2, 15]: less than proportional increase
extent of metabolism (conclusion from excretion) ([3]; cats, Study 3, topical administration, 28 days): poorly metabolized
absolute bioavailability after topical application ([4]; cats, Study 1, Fabs = AUCinf/D spot-on / AUCinf/D i.v., group geometric means): 57%
AUClast/D (Geo CV%) ([4]; cats): 103.16 (32.9) h∗kg∗μg/l/μg
Cmax/D (Geo CV%) ([4]; cats): 0.092 (37.9) kg∗μg/l/μg
duration of flea and tick control (fleas and ticks): 13 weeks
onset of efficacy, fleas already on the cat prior to treatment (fleas): ≤ 12 h
onset of efficacy, new flea infestation, after two months (fleas): ≤ 24 h
onset of efficacy, new flea infestation, for two months (fleas): ≤ 8 h

O=C(C1CCCCC1)N1CC(=O)N2CCc3ccccc3C2C1 (stereo not shown) [Praziquantel, praziquantel]
T1/2 (plasma half-life) [1, 7]: 1.8 (94.8) h
Cl_pred (systemic clearance) ([1]; in vivo): 1.861 (32.2) l/h/kg
Vz_pred (volume of distribution) ([1]; in vivo): 4.95 (142.2) l/kg
AUClast/D (Geo CV%) [2, 13]: 0.19 (47.7) h∗kg∗μg/l/μg
Cmax/D (Geo CV%) [2, 13]: 0.003 (51.7) kg∗μg/l/μg
AUClast/D (Geo CV%) [2, 14]: 0.25 (22.2) h∗kg∗μg/l/μg
Cmax/D (Geo CV%) [2, 14]: 0.003 (39.8) kg∗μg/l/μg
Ratio Cmax/D ([2]; in vivo): 0.75
dose proportionality of plasma PK (rate and extent) ([2]; in vivo): less than proportional increase
route of clearance [3]: equally cleared via the faeces and via the urine for males
AUClast/D (Geo CV%) ([4]; cats): 0.30 (19.9) h∗kg∗μg/l/μg
Cmax/D (Geo CV%) ([4]; cats): 0.004 (57.2) kg∗μg/l/μg
AUCinf (total plasma exposure) ([4]; in vivo): 3.7 (19.6) mg∗h/l
AUClast ([4]; in vivo): 3.6 (19.7) mg∗h/l
Tmax ([4]; in vivo): 4.8 (107.7) h
absolute bioavailability after topical application ([4]; in vivo): 48%
bioavailability after topical application, first 24 h ([4]; in vivo): 6%
plasma elimination half-life ([4]; in vivo): 240 h
Tmax [5]: 18.7 ± 47 h
maximum serum concentration [5]: 61.3 ± 44.1 µg/L
serum half-life [5]: 98.4 ± 36 h
serum half-life [6]: 103 h

CC(C)C[C@H]1C(=O)O[C@H](Cc2ccc(N3CCOCC3)cc2)C(=O)N(C)[C@@H](CC(C)C)C(=O)O[C@H](C)C(=O)N(C)[C@@H](CC(C)C)C(=O)O[C@H](Cc2ccc(N3CCOCC3)cc2)C(=O)N(C)[C@@H](CC(C)C)C(=O)O[C@H](C)C(=O)N1C [Emodepside, emodepside]
AUC(0-inf) [1, 16]: 1600 ng·h/mL
AUC(0-t) [1, 16]: 1500 ng·h/mL
half-life [1, 16]: 202 h
Vd ([1]; in vivo, iv, 0.2 mg/kg): 38.2 L/kg
clearance ([1]; in vivo, iv, 0.2 mg/kg): 2.18 mL/min/kg
Ratio AUClast/D [2, 9]: 0.64
Ratio Cmax/D [2, 9]: 0.60
Ratio AUClast/D [2, 10]: 0.66
Ratio Cmax/D [2, 10]: 0.53
AUC(0-inf) ([2]; European Shorthair (ESH), in vivo, topical or ocular, cats, Study 2, single topical Felpreva 2.5x, 0.37 ml/kg): 36100 ng·h/mL
AUC(0-inf) ([2]; European Shorthair (ESH), in vivo, topical or ocular, cats, Study 2, single topical Felpreva 5x, 0.74 ml/kg): 62500 ng·h/mL
Cmax ([2]; European Shorthair (ESH), in vivo, topical or ocular, Cmax, cats, Study 2, single topical Felpreva 5x, 0.74 ml/kg (72.5 mg/kg tigolaner, 15 mg/kg emodepside, 60 mg/kg praziquantel)): 106 ng/mL
half-life ([2]; European Shorthair (ESH), in vivo, topical or ocular, Study 2, single topical Felpreva 2.5x, 0.37 ml/kg): 329 h
half-life ([2]; European Shorthair (ESH), in vivo, topical or ocular, Study 2, single topical Felpreva 5x, 0.74 ml/kg): 328 h
Tmax ([2]; European Shorthair (ESH), in vivo, topical or ocular, Tmax, cats, Study 2, single topical Felpreva 2.5x, 0.37 ml/kg): 47.8 h
Tmax ([2]; European Shorthair (ESH), in vivo, topical or ocular, Tmax, cats, Study 2, single topical Felpreva 5x, 0.74 ml/kg): 61.9 h
AUClast/D (Geo CV%) [2, 13]: 4.32 (44.2) h∗kg∗μg/l/μg
Cmax/D (Geo CV%) [2, 13]: 0.009 (71.4) kg∗μg/l/μg
AUClast/D (Geo CV%) [2, 14]: 4.5 (36.5) h∗kg∗μg/l/μg
Cmax/D (Geo CV%) [2, 14]: 0.008 (35.7) kg∗μg/l/μg
dose proportionality of plasma PK (rate and extent) [2, 15]: less than proportional increase
route of clearance [3]: mainly cleared via the faeces
AUClast/D (Geo CV%) ([4]; cats): 6.79 (38.7) h∗kg∗μg/l/μg
Cmax/D (Geo CV%) ([4]; cats): 0.015 (61.0) kg∗μg/l/μg
Tmax (in vivo; Domestic Shorthair (DSH)): 36 h
AUC(0-inf) (in vivo; Domestic Shorthair): 20600 ng·h/mL
AUC(0-t) (in vivo; Domestic Shorthair): 20500 ng·h/mL
Cmax (in vivo; Domestic Shorthair): 44.3 ng/mL
Tmax (in vivo; Domestic Shorthair): 36.9 h
bioavailability (in vivo; Domestic Shorthair): 90%
half-life (in vivo; Domestic Shorthair): 348 h
